From ChEMBL document CHEMBL1151186, “Ether-linked biflavonoids from Quintinia acutifolia” (J Nat Prod, 2004)
Values after ≈ are worked out from the molar mass of the structure shown. Active and inactive are the calls of the source. The rule behind the calls is not given here.

Tests used:
P388 [1] = test: Cytotoxicity against mouse P388 cells at 0.06 ug/mL; assay type: functional
Bacillus subtilis [2] = test: Antimicrobial activity against Bacillus subtilis ATCC 19659 at 30 ug/disk; assay type: functional; conditions: read-out: IZ
P388 [3] = test: Cytotoxicity against mouse P388 cells; assay type: functional, cell-based
Bacillus subtilis [4] = test: Antimicrobial activity against Bacillus subtilis ATCC 19659 at 150 ug/disk; assay type: functional, organism-based

| SMILES | Activity (P388 [1]) | zone of inhibition at 30 µg/disc (Bacillus subtilis [2]) | IC50 (P388 [3]) | Activity (Bacillus subtilis [4]) |
| --- | --- | --- | --- | --- |
| CO[C@@]12[C@H](COC(N)=O)C3=C(C(=O)C(C)=C(N)C3=O)N1C[C@@H]1N[C@@H]12 [MITOMYCIN] | 43% |  |  |  |
| O=C(N[C@H](CO)[C@H](O)c1ccc([N+](=O)[O-])cc1)C(Cl)Cl [CHLORAMPHENICOL] |  | 12 mm |  |  |
| O=C1CC(c2ccc(Oc3cc(C4CC(=O)c5c(O)cc(O)cc5O4)ccc3O)cc2)Oc2cc(O)cc(O)c21 (centres undefined) |  |  | 8.2 µg/mL (≈ 15.1 µM) | inactive |
| O=C1CC(c2ccc(Oc3cc(-c4cc(=O)c5c(O)cc(O)cc5o4)ccc3O)cc2)Oc2cc(O)cc(O)c21 (centres undefined) |  |  | 3.1 µg/mL (≈ 5.74 µM) | inactive |
| COc1cc(O)c2c(c1)OC(c1ccc(Oc3cc(C4CC(=O)c5c(O)cc(OC)cc5O4)ccc3O)cc1)CC2=O (centres undefined) |  |  | 8.7 µg/mL (≈ 15.2 µM) | inactive |
| COc1cc(O)c2c(c1)OC(c1ccc(O)c(Oc3ccc(C4CC(=O)c5c(O)cc(O)cc5O4)cc3)c1)CC2=O (centres undefined) |  |  |  | inactive |
